Laboratory results: ChEMBL document CHEMBL3885861, “Open TG-GATES”

Species: Rattus norvegicus
Experiment: Open TG-GATES - Regimen: Daily Repeat
Format: toxicity, organism-based, Sprague-Dawley
Parameters: regimen Daily Repeat, gender Male, age 6 weeks
Conditions: in vivo, po, route gavage; for TP / gamma-GTP / ALP / ALT / AST / BUN / CRE / Ca / Cl / DBIL / GLC / IP / K / LDH / Na / PL / RALB / TBIL / TC / TG: tissue Plasma; for APTT / Bas / Eos / Fbg / Hb / Ht / Lym / MCH / MCV / Mono / Neu / PT / Plat / RBC / Ret / WBC / MCHC: tissue Blood; for KIDNEY_L / KIDNEY_R / KIDNEY_TOTAL: tissue Kidney; for LIVER: tissue Liver
[1] = 100 mg/kg, […], dose level Low, time 28 day
[2] = 300 mg/kg, 72 h, dose level Middle, time 3 day
[3] = 300 mg/kg, […], dose level Middle, time 7 day
[4] = 300 mg/kg, […], dose level Middle, time 14 day
[5] = 300 mg/kg, […], dose level Middle, time 28 day
[6] = 1000 mg/kg, 72 h, dose level High, time 3 day
[7] = 1000 mg/kg, […], dose level High, time 7 day
[8] = 1000 mg/kg, […], dose level High, time 14 day
[9] = 1000 mg/kg, […], dose level High, time 28 day

## CCOc1ccc(NC(C)=O)cc1 [PHENACETIN]
[1]
  TP: 6.4 g/dL
  gamma-GTP: 1 IU/L
[2]
  TERMINAL_BW: 224.3 g
  APTT: 21.5 s
  Bas: 0%
  Eos: 1.2%
  Fbg: 290.8 mg/dL
  Hb: 13.5 g/dL
  Ht: 40.7%
  Lym: 75.2%
  MCH: 19.9 pg
  MCV: 60.1 fL
  Mono: 3.4%
  Neu: 19.4%
  PT: 13.4 s
  Plat: 119.3 x10_4/uL
  RBC: 678.8 x10_4/ul
  Ret: 4.8%
  WBC: 98.2 x10_2/uL
  KIDNEY_L: 1 g
  KIDNEY_R: 1 g
  KIDNEY_TOTAL: 2 g
  LIVER: 11.1 g
  ALP: 1609.6 IU/L
  ALT: 39.2 IU/L
  AST: 66.2 IU/L
  BUN: 13 mg/dL
  CRE: 0.2 mg/dL
  Ca: 11.1 mg/dL
  Cl: 104.8 meq/L
  DBIL: 0.01 mg/dL
  GLC: 166 mg/dL
  IP: 6.9 mg/dL
  K: 4 meq/L
  LDH: 69.4 IU/L
  Na: 143.2 meq/L
  PL: 174.4 mg/dL
  RALB: 2.7 g/dL
  TBIL: 0.044 mg/dL
  TC: 80.4 mg/dL
  TG: 145.4 mg/dL
  TP: 5.7 g/dL
  gamma-GTP: 1 IU/L
[3]
  TERMINAL_BW: 262.8 g
  APTT: 17.4 s
  Bas: 0%
  Eos: 1%
  Fbg: 302.6 mg/dL
  Hb: 13.3 g/dL
  Ht: 40.1%
  Lym: 71.8%
  MCH: 20 pg
  MCV: 60.2 fL
  Mono: 2.8%
  Neu: 24.2%
  PT: 13.3 s
  Plat: 122.3 x10_4/uL
  RBC: 666.2 x10_4/ul
  Ret: 6.7%
  WBC: 103.2 x10_2/uL
  KIDNEY_L: 1.2 g
  KIDNEY_R: 1.1 g
  KIDNEY_TOTAL: 2.3 g
  ALP: 1712.6 IU/L
  ALT: 39.4 IU/L
  AST: 64.6 IU/L
  CRE: 0.2 mg/dL
  Ca: 11 mg/dL
  Cl: 104.2 meq/L
  DBIL: 0.008 mg/dL
  GLC: 177.8 mg/dL
  IP: 6.9 mg/dL
  K: 4.3 meq/L
  LDH: 79.4 IU/L
  PL: 174.4 mg/dL
  RALB: 2.7 g/dL
  TBIL: 0.048 mg/dL
  TC: 81.6 mg/dL
  TG: 149 mg/dL
  TP: 5.9 g/dL
  gamma-GTP: 1.4 IU/L
[4]
  TERMINAL_BW: 306 g
  Bas: 0.2%
  Eos: 1%
  Fbg: 273.2 mg/dL
  Lym: 74.4%
  MCH: 19.9 pg
  MCHC: 33.5%
  MCV: 59.3 fL
  Mono: 2.2%
  Neu: 21.8%
  PT: 13.1 s
  Plat: 125.2 x10_4/uL
  RBC: 696.6 x10_4/ul
  Ret: 6.5%
  WBC: 128 x10_2/uL
  KIDNEY_L: 1.2 g
  KIDNEY_R: 1.2 g
  KIDNEY_TOTAL: 2.5 g
  LIVER: 12.6 g
  ALP: 1577.4 IU/L
  ALT: 37.2 IU/L
  AST: 63 IU/L
  BUN: 14.2 mg/dL
  CRE: 0.2 mg/dL
  Ca: 10.7 mg/dL
  DBIL: 0.02 mg/dL
  GLC: 181.8 mg/dL
  IP: 6.3 mg/dL
  K: 4.3 meq/L
  LDH: 159.2 IU/L
  Na: 144.2 meq/L
  PL: 162.2 mg/dL
  RALB: 2.7 g/dL
  TBIL: 0.086 mg/dL
  TC: 78.4 mg/dL
  TG: 91.2 mg/dL
  TP: 5.9 g/dL
  gamma-GTP: 1 IU/L
[5]
  TERMINAL_BW: 397.8 g
  APTT: 21.1 s
  Bas: 0.2%
  Eos: 1.2%
  Fbg: 262.4 mg/dL
  Hb: 14.4 g/dL
  Ht: 42.5%
  Lym: 76.4%
  MCH: 19.1 pg
  MCHC: 33.8%
  MCV: 56.4 fL
  Mono: 1.8%
  PT: 13.7 s
  Plat: 103.8 x10_4/uL
  RBC: 754.2 x10_4/ul
  Ret: 4.9%
  WBC: 159.4 x10_2/uL
  KIDNEY_L: 1.4 g
  KIDNEY_R: 1.4 g
  KIDNEY_TOTAL: 2.9 g
  ALP: 1081 IU/L
  ALT: 40 IU/L
  AST: 63 IU/L
  BUN: 14.4 mg/dL
  CRE: 0.3 mg/dL
  Cl: 105.6 meq/L
  DBIL: 0.02 mg/dL
  GLC: 175.4 mg/dL
  IP: 5.9 mg/dL
  K: 4.1 meq/L
  LDH: 53.2 IU/L
  Na: 145 meq/L
  PL: 156.2 mg/dL
  RALB: 2.8 g/dL
  TBIL: 0.074 mg/dL
  TC: 70.2 mg/dL
  TG: 122.8 mg/dL
  TP: 6.2 g/dL
  gamma-GTP: 1 IU/L
[6]
  TERMINAL_BW: 201.2 g
  Bas: 0%
  Eos: 0.8%
  Fbg: 283.2 mg/dL
  Hb: 12.6 g/dL
  Ht: 37.2%
  Lym: 69.4%
  MCH: 19.9 pg
  MCHC: 33.9%
  MCV: 58.8 fL
  Mono: 3.2%
  Neu: 26%
  PT: 13.3 s
  Plat: 131.8 x10_4/uL
  RBC: 633.4 x10_4/ul
  Ret: 1.5%
  WBC: 108.7 x10_2/uL
  KIDNEY_L: 1 g
  KIDNEY_R: 0.9 g
  KIDNEY_TOTAL: 1.9 g
  LIVER: 11 g
  ALP: 1479.6 IU/L
  ALT: 43.2 IU/L
  AST: 73.6 IU/L
  BUN: 17.8 mg/dL
  CRE: 0.2 mg/dL
  Ca: 11 mg/dL
  DBIL: 0.024 mg/dL
  GLC: 154.6 mg/dL
  IP: 6.3 mg/dL
  K: 4.4 meq/L
  LDH: 77.6 IU/L
  Na: 143.8 meq/L
  PL: 202.4 mg/dL
  RALB: 2.7 g/dL
  TBIL: 0.092 mg/dL
  TC: 111.8 mg/dL
  TG: 87.4 mg/dL
  TP: 5.9 g/dL
  gamma-GTP: 1.4 IU/L
[7]
  TERMINAL_BW: 234.8 g
  APTT: 22.5 s
  Bas: 0.4%
  Eos: 0.4%
  Fbg: 319.6 mg/dL
  Ht: 33.4%
  Lym: 62.2%
  MCH: 22.7 pg
  MCHC: 31.2%
  MCV: 72.7 fL
  Mono: 3%
  Neu: 33.4%
  PT: 13.6 s
  Plat: 156.2 x10_4/uL
  RBC: 463.8 x10_4/ul
  Ret: 17.7%
  WBC: 178.5 x10_2/uL
  KIDNEY_L: 1.1 g
  KIDNEY_R: 1.1 g
  KIDNEY_TOTAL: 2.2 g
  LIVER: 11.9 g
  ALP: 1794.2 IU/L
  ALT: 46.4 IU/L
  AST: 73.2 IU/L
  BUN: 16 mg/dL
  CRE: 0.2 mg/dL
  Ca: 11 mg/dL
  Cl: 104.8 meq/L
  DBIL: 0.04 mg/dL
  GLC: 167.4 mg/dL
  IP: 5.9 mg/dL
  K: 4.5 meq/L
  LDH: 81.4 IU/L
  Na: 144 meq/L
  PL: 172.4 mg/dL
  RALB: 2.7 g/dL
  TBIL: 0.2 mg/dL
  TC: 75.6 mg/dL
  TG: 160 mg/dL
  TP: 6 g/dL
  gamma-GTP: 1.2 IU/L
[8]
  TERMINAL_BW: 283.3 g
  APTT: 19 s
  Bas: 0.2%
  Eos: 0.8%
  Fbg: 263.6 mg/dL
  Ht: 43.1%
  Lym: 72%
  MCH: 25.1 pg
  MCHC: 32%
  MCV: 78.4 fL
  Mono: 3.2%
  Neu: 23.6%
  PT: 13.7 s
  Plat: 108.2 x10_4/uL
  RBC: 550.4 x10_4/ul
  WBC: 119.8 x10_2/uL
  KIDNEY_L: 1.3 g
  KIDNEY_R: 1.3 g
  KIDNEY_TOTAL: 2.5 g
  LIVER: 13.2 g
  ALP: 1457 IU/L
  ALT: 43.2 IU/L
  AST: 68 IU/L
  CRE: 0.2 mg/dL
  Ca: 10.8 mg/dL
  Cl: 103.8 meq/L
  DBIL: 0.036 mg/dL
  GLC: 168.8 mg/dL
  IP: 6.2 mg/dL
  K: 4.5 meq/L
  LDH: 154 IU/L
  Na: 143.2 meq/L
  PL: 176.6 mg/dL
  RALB: 2.7 g/dL
  TBIL: 0.1 mg/dL
  TC: 81.6 mg/dL
  TG: 171.4 mg/dL
  TP: 5.9 g/dL
  gamma-GTP: 1.4 IU/L
[9]
  TERMINAL_BW: 363.6 g
  APTT: 18.1 s
  Bas: 0%
  Eos: 1%
  Fbg: 251.2 mg/dL
  Hb: 13.7 g/dL
  Lym: 66.8%
  MCH: 24.3 pg
  MCHC: 33.3%
  MCV: 72.8 fL
  Mono: 3.2%
  Neu: 28.4%
  Plat: 106.4 x10_4/uL
  RBC: 566.6 x10_4/ul
  Ret: 11.5%
  WBC: 134.5 x10_2/uL
  KIDNEY_L: 1.5 g
  KIDNEY_R: 1.5 g
  KIDNEY_TOTAL: 3 g
  ALP: 1375.4 IU/L
  ALT: 51.4 IU/L
  AST: 72.2 IU/L
  BUN: 21.4 mg/dL
  CRE: 0.3 mg/dL
  Ca: 10.8 mg/dL
  Cl: 102.8 meq/L
  DBIL: 0.038 mg/dL
  GLC: 157 mg/dL
  IP: 6.6 mg/dL
  K: 4.4 meq/L
  LDH: 70.8 IU/L
  Na: 145.2 meq/L
  PL: 171 mg/dL
  RALB: 2.8 g/dL
  TBIL: 0.1 mg/dL
  TC: 81.2 mg/dL
  TG: 125.6 mg/dL
  TP: 6.3 g/dL
  gamma-GTP: 1.2 IU/L
